Test results: patent publication US7897582B2, “Oligonucleotide compositions and methods for the modulation of the expression of B7 protein” (Isis Pharmaceuticals, Inc., priority 2003, dated 2011)
Strand notation (5' to 3'): a small letter for the sugar, then the base; units joined by * are phosphorothioate-linked, units joined directly phosphodiester-linked; [ ] holds rarer units or linkages, { } end groups; capitals alone tell only the bases. e = 2'-O-(2-methoxyethyl) (MOE); [5mC] = 5-methylcytosine; d = 2'-deoxy (DNA)

What was measured:
[1] = system: murine B7-2 (mB7-2); test: Murine B7-2 cell surface expression in transfected COS-7 cells by flow cytometry; format: cell-based, mouse
Description: (§1) Oligonucleotides (see Table 4) capable of inhibiting expression of murine B7-2 transiently expressed in COS-7 cells were identified in the following manner. A series of phosphorothioate oligonucleotides complementary to murine B7-2 (mB7-2) cDNA were screened for their ability to reduce mB7-2 levels (measured by flow cytometry as in Example 2, except that a conjugated anti-mB7-2 antibody (i.e., anti-mCD86-PE, PharMingen, San Diego, Calif.) in COS-7 cells transfected with an mB7-2 cDNA clone. Anti-mB7-2 antibody may also be obtained from the hybridoma deposited at the ATCC under accession No. HB-253. Oligonucleotides (see Table 2) capable of modulating murine B7-1 expression are isolated in like fashion, except that a conjugated anti-mB7-1 antibody is used in conjunction with COS-7 cells transfected with an mB7-1 cDNA clone.
(§2) B7 antisense oligonucleotides were tested for their effect on cell surface expression of both B7-1 and B7-2. Cell surface expression was measured as described in Example 1. Experiments were done for both human B7 and mouse B7.

[2] = system: murine B7-1; test: Murine B7-1 cell surface expression in transfected COS-7 cells by flow cytometry; format: cell-based; details: mouse B7-1 cell surface expression, basal = 100%
Description: as §1, §2

[3] = system: Mouse B7-1 mRNA; test: Mouse B7-1 mRNA expression, screened as in Example 4; format: cell-based; set-up: % mRNA INHIBITION: concentration or dose not given beside the values; details: Table 10
[4] = system: DBA/1LacJ mice with collagen-induced arthritis; test: Collagen-induced arthritis (CIA) murine model; format: in vivo, mouse; details: CIA in DBA/1LacJ mice
Method: Collagen-induced arthritis (CIA) was used as a murine model for arthritis (Mussener, A., et al., Clin. Exp. Immunol., 1997, 107, 485-493). Female DBA/1LacJ mice (Jackson Laboratories, Bar Harbor, Me.) between the ages of 6 and 8 weeks were used to assess the activity of B7-1 antisense oligonucleotides.
On day 0, the mice were immunized at the base of the tail with 100 μg of bovine type II collagen which is emulsified in Complete Freund's Adjuvant (CFA). On day 7, a second booster dose of collagen was administered by the same route. On day 14, the mice were injected subcutaneously with 100 μg of LPS. Oligonucleotide was administered intraperitoneally daily (10 mg/kg bolus) starting on day −3 (three days before day 0) and continuing for the duration of the study. Oligonucleotide 17456 (SEQ ID NO. 173) is a fully phosphorothioated analog of 18122.
Weights were recorded weekly. Mice were inspected daily for the onset of CIA. Paw widths are rear ankle widths of affected and unaffected joints were measured three times a week using a constant tension caliper. Limbs were clinically evaluated and graded on a scale from 0-4 (with 4 being the highest).

[5] = system: B7-2; test: B7-2 expression in antigen presenting cells (blood monocytes with IL-4 and GM-CSF), flow cytometry; format: cell-based, human; details: FIG. 6
Method: The ability of ISIS 10373 to inhibit expression from the native B7-2 gene in antigen presenting cells (APCs) was evaluated as follows.
Monocytes were cultured and treated with oligonucleotides as follows. For dendritic cells, EDTA-treated blood was layered onto Polymorphprep™ (1.113 g/mL; Nycomed, Oslo, Norway) and sedimented at 500×g for 30 minutes at 20° C. Mononuclear cells were harvested from the interface. Cells were washed with PBS, with serum-free RPMI media (Moore et al., N.Y. J. Med., 1968, 68, 2054) and then with RPMI containing 5% fetal bovine serum (FBS). Monocytes were selected by adherence to plastic cell culture cell culture dishes for 1 h at 37° C. After adherence, cells were treated with oligonucleotides in serum-free RPMI containing Lipofectin™ (8 μg/mL). After 4 hours, the cells were washed. […] Cells were incubated for 48 hours, after which cell surface expression of various molecules was measured by flow cytometry.
(§3) Mononuclear cells isolated from fresh blood were treated with oligonucleotide in the presence of cationic lipid to promote cellular uptake. […] Expression of B7-2 protein was measured by flow cytometry according to the methods of Example 2. […]

[6] = system: ICAM-1; test: ICAM-1 expression in antigen presenting cells, flow cytometry; format: cell-based, human; details: antigen presenting cells; FIG. 6; read-out: IC50, ICAM-1 levels
Method: Monocytes were cultured and treated with oligonucleotides as follows. For dendritic cells, EDTA-treated blood was layered onto Polymorphprep™ (1.113 g/mL; Nycomed, Oslo, Norway) and sedimented at 500×g for 30 minutes at 20° C. Mononuclear cells were harvested from the interface. Cells were washed with PBS, with serum-free RPMI media (Moore et al., N.Y. J. Med., 1968, 68, 2054) and then with RPMI containing 5% fetal bovine serum (FBS). Monocytes were selected by adherence to plastic cell culture cell culture dishes for 1 h at 37° C. After adherence, cells were treated with oligonucleotides in serum-free RPMI containing Lipofectin™ (8 μg/mL). After 4 hours, the cells were washed. Then RPMI containing 5% FBS and oligonucleotide was added to cells along with interleukin-4 (IL-4; R&D Systems, Minneapolis, Minn.) (66 ng/mL) and granulocyte-macrophage colony-stimulating factor (GM-CSF; R&D Systems, Minneapolis, Minn.) (66 ng/mL) to stimulate differentiation (Romani et al., J. Exp. Med., 1994, 180, 83, 1994). Cells were incubated for 48 hours, after which cell surface expression of various molecules was measured by flow cytometry.
as §3

[7] = system: CD4+ T cells; test: T cell proliferation assay, [3H]thymidine incorporation, oligonucleotide-treated APCs plus CD4+ T cells; format: cell-based, human; details: APCs treated before cytokine induction; FIG. 7
Method: The ability of ISIS 2302 and ISIS 10373 to inhibit T cell proliferation was evaluated as follows. Monocytes treated with oligonucleotide and cytokines (as in Example 6) were used as antigen presenting cells in a T cell proliferation assay. The differentiated monocytes were combined with CD4+ T cells from a separate donor. After 48 hours, proliferation was measured by [^3H]thymidine incorporation.
For T cell proliferation assays, cells were isolated from EDTA-treated whole blood as described above, except that a faster migrating band containing the lymphocytes was harvested from just below the interface. Cells were washed as described in Example 6 after which erythrocytes were removed by NH4Cl lysis. T cells were purified using a T cell enrichment column (R&D Systems, Minneapolis, Minn.) essentially according to the manufacturer's directions. CD4+ T cells were further enriched from the entire T cell population by depletion of CD8+ cells with anti-CD8-conjugated magnetic beads (AMAC, Inc., Westbrook, Me.) according to the manufacturer's directions. T cells were determined to be >80% CD4+ by flow cytometry using Cy-chrome-conjugated anti-CD4 mAb (PharMingen, San Diego, Calif.).
Antigen presenting cells (APCs) were isolated as described in Example 6 and treated with mitomycin C (25 μg/mL) for 1 hour then washed 3 times with PBS. APCs (10^5 cells) were then combined with 4×10^4 CD4+ T cells in 350 μL of culture media. Where indicated, purified CD3 mAb was also added at a concentration of 1 μg/mL. During the last 6 hours of the 48 hour incubation period, proliferation was measured by determining uptake of 1.5 μCi of [^3H]-thymidine per well. The cells were harvested onto filters and the radioactivity measured by scintillation counting.

[8] = system: human B7-2; test: Cell surface expression of B7-2 in transfected COS-7 cells by flow cytometry; format: cell-based; details: 200 nM; FIG. 3
Method in brief: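 COS-7 cells transfected with B7-2 plasmid (calcium phosphate), then treated with antisense oligonucleotides with 15 μg/mL Lipofectin for 4 h, followed by oligonucleotide in DMEM/10% FCS. After 24-48 h, cells stained with FITC- or PE-conjugated anti-CD86 for 30 min at 4 °C and analysed by flow cytometry.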

[9] = system: murine B7-2 (mB7-2); test: mB7-2 cell surface expression in LPS-induced IC-21 cells by flow cytometry; format: cell-based, mouse; details: FIG. 9; for levels of induced mB7-2 expression: 3 μM; for reduction in the level of induced mB7-2 expression: 10 μM
Method: In order to further evaluate the murine B7-2 antisense oligonucleotides, the IC-21 cell line was used. IC-21 monocyte/macrophage cell line expresses both B7-1 and murine B7-2 (mB7-2) constitutively. A 2-fold induction of expression can be achieved by incubating the cells in the presence of lipopolysaccharide (LPS; GIBCO-BRL, Gaithersburg, Md.) (Hathcock et al., Science, 1993, 262, 905).
IC-21 cells (ATCC; accession No. TIB 186) were seeded at 80% confluency in 12-well plates in DMEM media with 10% FCS. The cells were allowed to adhere to the plate overnight. The following day, the medium was removed and the cells were washed with PBS. Then 500 μL of OptiMEM™ (GIBCO-BRL, Gaithersburg, Md.) supplemented with 15 μg/mL of Lipofectin™ (GIBCO-BRL, Gaithersburg, Md.) was added to each well. Oligonucleotides were then added directly to the medium at the indicated concentrations. After incubation for 4 hours, the cells were washed with PBS and incubated overnight in culture medium supplemented with 15 μg/mL of LPS. The following day, cells were harvested by scraping, then analyzed for cell surface expression by flow cytometry.

[10] = system: BALB/c mice with heart allograft; test: Murine heart allograft rejection model; format: in vivo, mouse
Method: A murine model for evaluating compounds for their ability to inhibit heart allograft rejection has been previously described (Stepkowski et al., J. Immunol., 1994, 153, 5336). This model was used to evaluate the immunosuppressive capacity of antisense oligonucleotides to B7 proteins alone or in combination with antisense oligonucleotides to intercellular adhesion molecule-1 (ICAM-1).
Heart allograft rejection studies and oligonucleotide treatments of BALB/c mice were performed essentially as previously described (Stepkowski et al., J. Immunol., 1994, 153, 5336). Antisense oligonucleotides used included ISIS 11696, ISIS 3082 (targeted to ICAM-1) and ISIS 1082 (a control oligonucleotide targeted to the herpes virus UL-13 gene sequence). Dosages used were 1, 2, 2.5, 5 or 10 mg/kg of individual oligonucleotide (as indicated below); when combinations of oligonucleotides were administered, each oligonucleotide was given at a dosage of 1, 5 or 10 mg/kg (total oligonucleotide dosages of 2, 10 and 20 mg/kg, respectively). The survival times of the transplanted hearts and their hosts were monitored and recorded.

18110 (antisense eA*eT*eG*eA*eG*dG*dA*dG*dA*dG*dT*dT*dG*dT*dA*eA*e[5mC]*eG*eG*e[5mC]) [compound 18110]
% B7-2 EXPRESSION ([1]; mouse B7-2 cell surface expression): 93% | % B7-1 EXPRESSION [2]: 31% | % mRNA EXPRESSION [3]: 21.0% | % mRNA INHIBITION [3]: 79.0% | % Incidence ([4]; 10 mg/kg intraperitoneally daily from day -3, control 70%): 55.6% | Peak day (day from onset of maximum swelling for each joint measure) ([4]; 10 mg/kg intraperitoneally daily, control 6.7 ± 2.9): 2.0 ± 0.8 days | Severity (total clinical score divided by the total number of mice in the group) ([4]; 10 mg/kg intraperitoneally daily, limbs graded 0-4, control 3.2 ± 1.1): 2.0 ± 1.3

ISIS 2302: antisense oligonucleotide targeted to ICAM-1, an inhibitor of ICAM-1 expression; SEQ ID NO: 17 (antisense GCCCAAGCTGGCATCCGTCA; listed as DNA, chemistry not given here) [reference compound]
effect on B7-2 expression [5]: no effect | IC50 [6]: ~250 nM | T cell proliferative response [7]: blocked

ISIS 10721: scrambled # 10373; SEQ ID NO: 82 (antisense dC*dG*dA*dC*dA*dG*dC*dT*dC*dC*dT*dG*dC*dG*dC*dT*dC*dC*dT*dC) [reference compound]
inhibitory activity on B7-2 cell surface expression [8]: no inhibitory activity | T cell proliferative response [7]: insignificant effect

GGA-TTG-CCA-AGC-CCA-TGG-TG (GGATTGCCAAGCCCATGGTG; chemistry not given here) [ISIS 11696]
IC50 ([1]; COS-7 cells, FIG. 8): 200 to 300 nM | levels of induced mB7-2 expression [9]: greatly reduced | reduction in the level of induced mB7-2 expression [9]: inhibited mB7-2 expression completely | mean survival time ([10]; 2 mg/kg/day for 7 days): 9.3 ± 0.6 days | mean survival time ([10]; 10 mg/kg/day for 7 days): 9.3 ± 1.3 days

CTA-AGT-AGT-GCT-AGC-CGG-GA (antisense CTAAGTAGTGCTAGCCGGGA; listed as DNA, chemistry not given here) [ISIS 11866, scrambled # 11696, reference compound]
inhibition of murine B7-2 cell surface expression ([1]; highest concentration tested (1000 nM)): less than 20% | levels of induced mB7-2 expression [9]: little effect | reduction in the level of induced mB7-2 expression [9]: 40%
